How the values were obtained:
MDA-MB-468 cells [1] = test: Mitochondrial membrane potential, JC-1 staining, flow cytometry; format: cell-based; settings: positive control
Protocol: The cells treated with the mitochondrial uncoupler CCCP (carbonyl cyanide m-chlorophenylhydrazone), which mediates the dissipation of mitochondrial membrane potential, served as positive control for the detection of mitochondrial dysfunction. […] Unstained control represented in Fig. 10A has been used for gating purposes. […]

MDA-MB-468 cells [2] = test: MTT in vitro cytotoxicity assay, triple negative breast cancer cells; format: cell-based; settings: MDA-MB-468, MTT, 48 h
Protocol: The in vitro cytotoxicity of complexes IrL1–IrL5 and cisplatin were investigated using the typical 3-(4,5-dimethylthiazol-2-yl)-2,5-diphenyltetrazolium bromide (MTT) assay protocol against a panel of triple negative cancer cell line MDA-MB-468. The cells were initially incubated with the all test compounds at concentrations ranging from 0.5–50 μM for 48 h in vitro.
Cytotoxicity study of all the synthesized compounds against triple negative breast cancer cells MDA-MB-468 and immortalized human keratinocyte cell line HaCaT were done with a drug incubation period of 48 h by following standard procedure that were mentioned in ESI. ^† Preliminary studies were done to understand the mode of action of the complex to induce cytotoxicity using flow cytometric methods.
For doing the cell culture the cells were retained in DMEM media (Gibco), added with 10% fetal bovine serum (Himedia, India), 1% penicillin and streptomycin and 1% of Glutmax (Gibco, Thermo Scientific, USA) at 37°C in 5% CO2. When the cells attained 70%-80% confluency they were trypsinized using 0.25% trypsin-EDTA (Thermo Fisher Scientific, […]
In vitro cytotoxicity study was measured by standard MTT assay protocol.1 First the prepared complexes (IrL1-IrL5) were dissolved in 0.1% DMSO followed by dilution with DMEM medium. One cancer cell lines i.e. triple negative breast cancer cells (MDA-MB-468) and one normal cell line i.e. immortalized human keratinocyte cell line (HaCaT) were used for this assay. Approximately 1×10^4 cells per well were cultured in 100 μl of a growth medium in 96-well plates and then incubated under 5% CO2 atmosphere at 37°C temperature. Then the incubated cells were treated with different concentrations of the complexes in the volume of […]. The cisplatin was taken as standard positive control for this experiment. The Cells which were in the control wells, also engaged the same volume of medium containing 0.1% DMSO. After 48 h, the medium was superfluous and cell cultures were again incubated with 100 μL of MTT reagent (1 mg/ml) for 5 h at 37 °C. Then the resultant suspension was kept on micro vibrator for 10 min and the absorbance was recorded at λ = 570 nm in ELISA plate reader. The experiment was also performed in triplicate. The data were represented as the growth inhibition percentage i.e. % growth inhibition = 100 − [(AD × 100)/AB], where AD, measured absorbance in wells which contain samples and AB, measured absorbance for blank wells (cells with a medium and a vehicle). […]

Solubility study = format: physicochemical; settings: DMSO-10% DMEM medium (1 : 99 v/v, comparable to cell media)
Protocol: (§1) Both hydrophilicity and lipophilicity studies were performed to determine the tumour-inhibiting potential of the metal complexes. These complexes were highly soluble in DMSO and moderately soluble in H2O, MeOH, EtOH and CH3CN. […] The lipophilicity of these complexes was determined by performing an n-octanol/water partition coefficient (log Po/w, where Po/w = the octanol/water partition coefficient) study using the shake flask method (Table 1).[24] The experimental log Po/w values of these complexes were determined to be in the range of 0.27–0.34 (Table 1). […] This change in the electrolytic behaviour of the complexes from 1 : 1 to 1 : 2 can be attributed to the dissociation of the Ir–Cl bond and subsequent aquation of the complexes.

[3] = n-Octanol/water partition coefficient, shake flask method; format: physicochemical
Protocol: as §1, with “the complexes. […]” for “the complexes.”
n-Octanol–water partition coefficient (log P o/w)9
The log Po/w of the iridium complexes were adhering to shake flask method using the previously published procedure. A known amount of each complex (IrL1-IrL5) was suspended in water (pre-saturated with n-octanol) and shaken for 48 h on an orbital shaker.
To allow the phase separation, the solution was centrifuged for 10 min at 3000 rpm. To obtain the partition coefficient, different ratios (0.5: 1, 1: 1, and 2: 1) of the saturated solutions were shaken with pre-saturated n-octanol for 20 min on an orbital shaker and followed the same procedure. Aliquots of the aqueous and octanol layers were pipetted out separately and the absorbances were measured with UV-Vis spectrophotometer using proper dilution. Each set was performed in triplicate, concentration of the substances in each layer was calculated using the respective molar extinction coefficients and the partition coefficient (log P o/w) values were obtained from the ratio.

MDA-MB-468 cells [4] = test: ROS generation, DCFDA staining; format: cell-based; settings: positive control
Protocol: Our results indicated a dose dependent increase in ROS production in the MDA-MB-468 cells treated with IrL1 concentrations 1 μM and 3 μM. The extent of ROS production is indicated by the 2′,7′-dichlorofluorescein (DCF) formed by the deacetylation and subsequent oxidation of 2′,7′-dichlorofluorescin diacetate (DCFDA) through cellular esterases and ROS. […] ROS production was absent in untreated control. However, in the positive control, treated with H2O2, ROS production was high which is ∼99% (Fig. 11).
Colocalization study and ROS generation studies were performed using live cell lines in their log phase.

| Compound | Solubility (Solubility study) [µM] | log P (n-octanol/water partition coefficient) [3] | cells retaining healthy mitochondria (JC-1 aggregates) (MDA-MB-468 cells [1]) [%] | cells with damaged mitochondria (JC-1 monomers) (MDA-MB-468 cells [1]) [%] | IC50 (MDA-MB-468 cells [2]) [µM] | ROS production (MDA-MB-468 cells [4]) [%] |
| --- | --- | --- | --- | --- | --- | --- |
| N#CC(C#N)=NNc1cccc(Cl)c1 [CCCP, carbonyl cyanide m-chlorophenylhydrazone, reference compound] | – | – | ~20 | ~79 | – | – |
| [Iridium(III)-Cp*-2-(anthracen-1-yl)-1H-imidazo[4,5-f][1,10]phenanthroline]PF6 [IrL2] | 600 | 0.34 ± 0.07 | – | – | 20.4 | – |
| OO [H2O2, reference compound] | – | – | – | – | – | ~99 |
| [Iridium(III)-Cp*-3-(1H-imidazo[4,5-f][1,10]phenanthrolin-2-yl)-4H-chromen-4-one]PF6 [IrL3] | 1200 | −0.23 ± 0.2 | – | – | 20.3 | – |

Continued, in another order:

| Solubility (Solubility study) [µM] | log P (n-octanol/water partition coefficient) [3] | Compound | cells retaining healthy mitochondria (JC-1 aggregates) (MDA-MB-468 cells [1]) [%] | cells with damaged mitochondria (JC-1 monomers) (MDA-MB-468 cells [1]) [%] | IC50 (MDA-MB-468 cells [2]) [µM] | ROS production (MDA-MB-468 cells [4]) [%] |
| --- | --- | --- | --- | --- | --- | --- |
| 700 | 0.29 ± 0.08 | [Iridium(III)-Cp*-2-((3aR,7aR)-3a,7a-dihydrobenzo[b]thiophen-2-yl)-1H-imidazo[4,5-f][1,10]phenanthroline]PF6 [IrL5] | – | – | 4.41 | – |
| 900 | 0.02 ± 0.05 | [Iridium(III)-Cp*-2-((3aR,7aR)-3a,7a-dihydro-1H-indol-3-yl)-1H-imidazo[4,5-f][1,10]phenanthroline]PF6 [IrL4] | – | – | 5.2 | – |

From publication PMC9016803, “Mitochondria-targeted half-sandwich iridium(III)-Cp*-arylimidazophenanthroline complexes as antiproliferative and bioimaging agents against triple negative breast cancer cells MDA-MB-468” (RSC Advances, 2022)
